Experimental data published in ChEMBL document CHEMBL4043122, “Discovery of spiro[indole-3,2'-pyrrolidin]-2(1H)-one based inhibitors targeting Brr2, a core component of the U5 snRNP” (Bioorg Med Chem, 2017).
Converted amounts (≈) assume the structure as drawn. The source made the active and inactive calls. The rule behind the calls is not given here.

Experiments:
[1] = target: T1, U5 small nuclear ribonucleoprotein 200 kDa helicase (Homo sapiens, UniProt O75643); assay: Inhibition of full length recombinant human N-terminal His-tagged BRR2 RNA dependent ATPase activity expressed in baculovirus infected Sf9 cells using single stranded poly(U) RNA as substrate after 30 mins by ADP-Glo luminescence assay
[2] = target: Eukaryotic initiation factor 4A-I (Homo sapiens, UniProt P60842); assay: Inhibition of elF4G-induced full length recombinant human N-terminal His6-SUMO-tagged eIF4A1 RNA dependent ATPase activity expressed in Escherichia coli BL21(DE3) using single stranded poly(U) RNA as substrate after 30 mins by ADP-Glo luminescence assay
[3] = target: Eukaryotic initiation factor 4A-III (Homo sapiens, UniProt P38919); assay: Inhibition of MLN51-induced full length recombinant human N-terminal His6/SUMO-tagged eIF4A3 RNA dependent ATPase activity expressed in Escherichia coli BL21(DE3) using single stranded poly(U) RNA as substrate after 30 mins by ADP-Glo luminescence assay
[4] = Solubility of the compound at pH 6.8; format: physicochemical; settings: buffer
[5] = target: T1, U5 small nuclear ribonucleoprotein 200 kDa helicase; assay: Inhibition of full length recombinant human N-terminal His-tagged BRR2 helicase activity expressed in baculovirus infected Sf9 cells using 5'-[FITC]-UUCCCCUGCAUAAC-3'/5'-GUUAUGCAGGGGAACCAACGCAUAUCAGUGAGGAUU-3' RNA as substrate at 100 uM after 10 mins in presence of ATP by PAGE analysis
[6] = Permeability of the compound at pH 7.4 by PAMPA; format: physicochemical; settings: read-out: permeability
[7] = target: T2, ATP-dependent RNA helicase DHX29 (Homo sapiens, UniProt Q7Z478); assay: Inhibition of full length recombinant human N-terminal His-FLAG-tagged DHX29 RNA dependent ATPase activity expressed in baculovirus infected Sf9 insect cells using single stranded poly(U) RNA as substrate after 30 mins by ADP-Glo luminescence assay
T2 sequence (Q7Z478 whole entry): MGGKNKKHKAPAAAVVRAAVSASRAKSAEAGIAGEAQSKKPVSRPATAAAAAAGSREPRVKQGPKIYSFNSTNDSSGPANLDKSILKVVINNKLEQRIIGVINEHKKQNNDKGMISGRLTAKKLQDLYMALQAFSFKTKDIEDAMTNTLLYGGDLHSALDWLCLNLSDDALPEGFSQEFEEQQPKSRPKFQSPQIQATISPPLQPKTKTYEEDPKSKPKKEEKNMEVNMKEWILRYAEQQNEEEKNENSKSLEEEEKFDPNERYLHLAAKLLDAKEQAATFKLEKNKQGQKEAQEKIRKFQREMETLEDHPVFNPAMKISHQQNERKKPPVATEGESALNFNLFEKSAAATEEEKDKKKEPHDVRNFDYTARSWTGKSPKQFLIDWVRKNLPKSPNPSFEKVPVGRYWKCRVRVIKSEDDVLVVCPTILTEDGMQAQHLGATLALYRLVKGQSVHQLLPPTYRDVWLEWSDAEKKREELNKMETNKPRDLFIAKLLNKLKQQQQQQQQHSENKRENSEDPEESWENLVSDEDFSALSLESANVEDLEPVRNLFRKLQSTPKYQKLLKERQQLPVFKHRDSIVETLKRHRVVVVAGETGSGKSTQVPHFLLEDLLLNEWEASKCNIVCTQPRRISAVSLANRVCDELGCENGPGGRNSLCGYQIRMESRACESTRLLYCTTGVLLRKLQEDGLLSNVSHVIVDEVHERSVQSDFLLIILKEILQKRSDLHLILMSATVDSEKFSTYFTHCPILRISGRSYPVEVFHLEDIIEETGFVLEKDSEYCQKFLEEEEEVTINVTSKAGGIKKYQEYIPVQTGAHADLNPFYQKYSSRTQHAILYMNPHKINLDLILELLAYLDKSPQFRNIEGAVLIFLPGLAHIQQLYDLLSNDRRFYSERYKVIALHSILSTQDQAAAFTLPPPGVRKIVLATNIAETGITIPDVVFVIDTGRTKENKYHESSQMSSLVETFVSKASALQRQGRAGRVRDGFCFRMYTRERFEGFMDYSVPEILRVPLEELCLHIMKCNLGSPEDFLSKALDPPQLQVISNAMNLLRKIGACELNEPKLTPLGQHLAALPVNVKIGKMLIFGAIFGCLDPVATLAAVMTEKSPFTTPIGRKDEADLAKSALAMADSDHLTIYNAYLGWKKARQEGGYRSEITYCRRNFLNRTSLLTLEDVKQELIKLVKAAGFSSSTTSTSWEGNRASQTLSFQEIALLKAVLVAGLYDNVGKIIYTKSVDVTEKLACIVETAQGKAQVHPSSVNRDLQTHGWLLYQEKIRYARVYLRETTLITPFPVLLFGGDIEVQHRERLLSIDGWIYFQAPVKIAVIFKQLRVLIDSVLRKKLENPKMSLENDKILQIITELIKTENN

[8] = target: T1, U5 small nuclear ribonucleoprotein 200 kDa helicase; assay: Inhibition of full length recombinant human N-terminal His-tagged BRR2 helicase activity expressed in baculovirus infected Sf9 cells using 5'-[FITC]-UUCCCCUGCAUAAC-3'/5'-GUUAUGCAGGGGAACCAACGCAUAUCAGUGAGGAUU-3' RNA as substrate after 10 mins in presence of ATP by PAGE analysis

Sequence of Eukaryotic initiation factor 4A-III (P38919 whole entry): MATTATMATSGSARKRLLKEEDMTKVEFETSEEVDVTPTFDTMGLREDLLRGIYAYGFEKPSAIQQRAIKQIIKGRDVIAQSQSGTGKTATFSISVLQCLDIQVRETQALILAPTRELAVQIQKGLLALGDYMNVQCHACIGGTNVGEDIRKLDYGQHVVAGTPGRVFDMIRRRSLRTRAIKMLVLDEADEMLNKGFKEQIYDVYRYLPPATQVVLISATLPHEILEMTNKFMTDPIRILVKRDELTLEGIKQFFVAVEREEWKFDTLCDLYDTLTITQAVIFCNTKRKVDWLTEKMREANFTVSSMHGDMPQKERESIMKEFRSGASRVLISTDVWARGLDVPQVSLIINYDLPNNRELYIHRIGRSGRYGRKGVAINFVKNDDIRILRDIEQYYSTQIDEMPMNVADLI
Sequence of Eukaryotic initiation factor 4A-I (P60842 whole entry): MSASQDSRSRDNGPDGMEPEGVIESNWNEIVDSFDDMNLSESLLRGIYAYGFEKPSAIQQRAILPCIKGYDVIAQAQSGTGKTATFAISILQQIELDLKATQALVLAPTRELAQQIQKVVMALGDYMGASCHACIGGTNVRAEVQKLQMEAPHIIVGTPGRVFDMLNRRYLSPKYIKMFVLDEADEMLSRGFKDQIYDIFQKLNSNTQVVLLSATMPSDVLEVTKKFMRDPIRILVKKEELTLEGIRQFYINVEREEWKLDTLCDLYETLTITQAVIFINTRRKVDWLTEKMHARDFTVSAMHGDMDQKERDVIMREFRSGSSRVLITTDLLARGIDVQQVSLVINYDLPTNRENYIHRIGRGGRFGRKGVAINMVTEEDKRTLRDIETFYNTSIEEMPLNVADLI
T1 sequence (O75643 whole entry): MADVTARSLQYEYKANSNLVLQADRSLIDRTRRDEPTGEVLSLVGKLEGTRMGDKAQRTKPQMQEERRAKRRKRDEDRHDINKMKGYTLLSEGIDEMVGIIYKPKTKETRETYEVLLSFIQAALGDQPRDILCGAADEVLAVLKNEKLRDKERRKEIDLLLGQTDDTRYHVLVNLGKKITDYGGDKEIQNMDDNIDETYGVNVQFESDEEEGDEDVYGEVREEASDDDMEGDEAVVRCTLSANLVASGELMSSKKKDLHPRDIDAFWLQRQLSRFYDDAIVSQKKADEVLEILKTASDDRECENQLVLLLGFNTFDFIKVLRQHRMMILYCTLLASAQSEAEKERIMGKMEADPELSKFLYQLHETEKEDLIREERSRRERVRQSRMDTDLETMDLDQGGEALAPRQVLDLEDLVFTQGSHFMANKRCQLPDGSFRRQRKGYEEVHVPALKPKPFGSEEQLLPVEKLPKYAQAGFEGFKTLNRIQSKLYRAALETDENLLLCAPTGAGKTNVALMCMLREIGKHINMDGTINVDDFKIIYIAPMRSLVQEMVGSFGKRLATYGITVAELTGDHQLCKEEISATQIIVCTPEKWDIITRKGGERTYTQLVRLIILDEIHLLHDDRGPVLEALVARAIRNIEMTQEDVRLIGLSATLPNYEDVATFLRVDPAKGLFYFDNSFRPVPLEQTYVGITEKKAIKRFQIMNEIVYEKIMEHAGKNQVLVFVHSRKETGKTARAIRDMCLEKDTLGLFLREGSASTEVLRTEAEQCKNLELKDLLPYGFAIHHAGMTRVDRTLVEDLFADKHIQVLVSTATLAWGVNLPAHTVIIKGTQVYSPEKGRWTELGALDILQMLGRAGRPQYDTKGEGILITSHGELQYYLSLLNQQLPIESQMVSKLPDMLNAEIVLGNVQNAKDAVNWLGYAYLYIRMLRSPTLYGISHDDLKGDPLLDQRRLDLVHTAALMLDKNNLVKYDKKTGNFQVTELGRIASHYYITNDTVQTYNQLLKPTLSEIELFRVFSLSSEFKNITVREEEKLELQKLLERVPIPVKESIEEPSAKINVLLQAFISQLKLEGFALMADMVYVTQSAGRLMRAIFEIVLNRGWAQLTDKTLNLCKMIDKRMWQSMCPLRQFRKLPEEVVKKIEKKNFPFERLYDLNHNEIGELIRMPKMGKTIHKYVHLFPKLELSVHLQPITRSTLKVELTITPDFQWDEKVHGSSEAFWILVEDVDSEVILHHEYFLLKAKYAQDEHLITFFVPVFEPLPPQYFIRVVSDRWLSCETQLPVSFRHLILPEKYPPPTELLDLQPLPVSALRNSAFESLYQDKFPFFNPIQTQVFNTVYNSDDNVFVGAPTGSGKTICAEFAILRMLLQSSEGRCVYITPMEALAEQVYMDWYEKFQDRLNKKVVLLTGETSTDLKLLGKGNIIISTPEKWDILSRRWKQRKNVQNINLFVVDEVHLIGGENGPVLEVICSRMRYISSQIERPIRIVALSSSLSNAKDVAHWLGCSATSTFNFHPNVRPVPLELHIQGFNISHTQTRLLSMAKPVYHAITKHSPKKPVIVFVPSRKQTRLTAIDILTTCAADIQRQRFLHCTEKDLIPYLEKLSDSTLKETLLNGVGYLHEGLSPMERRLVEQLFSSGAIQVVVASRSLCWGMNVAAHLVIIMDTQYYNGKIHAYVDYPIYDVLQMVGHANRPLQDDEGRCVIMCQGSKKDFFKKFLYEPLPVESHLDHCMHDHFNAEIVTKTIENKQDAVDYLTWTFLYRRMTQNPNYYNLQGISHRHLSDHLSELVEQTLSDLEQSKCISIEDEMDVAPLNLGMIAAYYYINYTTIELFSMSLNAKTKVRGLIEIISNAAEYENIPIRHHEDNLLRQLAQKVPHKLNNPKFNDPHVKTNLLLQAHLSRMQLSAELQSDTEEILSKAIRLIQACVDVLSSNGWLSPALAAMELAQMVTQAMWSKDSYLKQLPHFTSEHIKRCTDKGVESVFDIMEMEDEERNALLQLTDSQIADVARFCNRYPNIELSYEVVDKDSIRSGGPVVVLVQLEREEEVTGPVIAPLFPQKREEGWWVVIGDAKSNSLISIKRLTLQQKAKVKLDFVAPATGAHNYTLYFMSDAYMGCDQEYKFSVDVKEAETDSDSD

IC50 [1] [µM]	IC50 [2] [µM]	IC50 [3] [µM]	solubility [4] [mg/mL]	inhibition [5]	Papp [6] [nm/s]	IC50 [7] [µM]	IC50 [8] [µM]	Compound
84	> 100	> 100	> 0.11	inactive	168	–	–	CC(C)C[C@@H]1C[C@H](C)[C@@]2(C(=O)Nc3ccc(F)cc32)N1C(=O)c1cn(C)cn1
0.021	> 100	> 100	> 0.099	–	183	> 100	0.48	CC(C)C[C@H]1C[C@@H](C)[C@]2(C(=O)Nc3ccc(F)cc32)N1C(=O)c1cn(C)cn1
> 100	> 100	> 100	0.046 (≈ 99.9 µM)	inactive	195	–	–	CC(C)C[C@@H]1C[C@H](C)[C@@]2(C(=O)Nc3ccc(F)cc32)N1C(=O)c1cn(Cc2ccccc2)cn1
0.011	> 100	> 100	0.045 (≈ 97.7 µM)	–	182	> 100	0.35	CC(C)C[C@H]1C[C@@H](C)[C@]2(C(=O)Nc3ccc(F)cc32)N1C(=O)c1cn(Cc2ccccc2)cn1
0.024	–	–	–	–	–	–	–	CC(C)C[C@H]1C[C@@H](C)[C@]2(C(=O)Nc3ccc(F)cc32)N1C(=O)c1cn(Cc2ccccc2)cn1 (racemic)
0.042	–	–	–	–	–	–	–	CC(C)C[C@H]1C[C@@H](C)[C@]2(C(=O)Nc3ccc(F)cc32)N1C(=O)c1cn(C)cn1 (racemic)
